Laboratory results: PubChem BioAssay AID1963828 (Molecular Pharmacology Branch, DTP, NCI, 2024)

Tested on: 991263-137-R1-J2-PDC complex spheroid viability
Test: Anticancer human tumor 991263-137-R1-J2-PDC patient-derived colon adenocarcinoma cell line growth inhibition [POLQ]
Conditions: for IC50: curve of first compound; for viability, T/C: stronger effect = lower value
How it was run: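 Complex spheroid viability model combining PDC tumour cells with endothelial (HUVEC) and MSC stromal cells. Novobiocin, ART-558 or RP6685 were tested singly and in combination with standard and investigational anticancer drugs. Each was titrated in half-log steps from near clinical Cmax, or from 10 microM where Cmax was unknown.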

[1] = second compound 0.0316 µM, first compound 0.0316 µM
[2] = second compound 0.0316 µM, first compound 0.1 µM
[3] = second compound 0.0316 µM, first compound 0.316 µM
[4] = second compound 0.0316 µM, first compound 1 µM
[5] = second compound 0.1 µM, first compound 0.0316 µM
[6] = second compound 0.1 µM, first compound 0.1 µM
[7] = second compound 0.1 µM, first compound 0.316 µM
[8] = second compound 0.1 µM, first compound 1 µM
[9] = second compound 0.316 µM, first compound 0.0316 µM
[10] = second compound 0.316 µM, first compound 0.1 µM
[11] = second compound 0.316 µM, first compound 0.316 µM
[12] = second compound 0.316 µM, first compound 1 µM
[13] = second compound 1 µM, first compound 0.0316 µM
[14] = second compound 1 µM, first compound 0.1 µM
[15] = second compound 1 µM, first compound 0.316 µM
[16] = second compound 1 µM, first compound 1 µM
[17] = second compound 3.16 µM, first compound 0.0316 µM
[18] = second compound 3.16 µM, first compound 0.1 µM
[19] = second compound 3.16 µM, first compound 0.316 µM
[20] = second compound 3.16 µM, first compound 1 µM
[21] = second compound 10 µM, first compound 0.0316 µM
[22] = second compound 10 µM, first compound 0.1 µM
[23] = second compound 10 µM, first compound 0.316 µM
[24] = second compound 10 µM, first compound 1 µM
[25] = second compound 0.0316 µM, first compound 0.00316 µM
[26] = second compound 0.0316 µM, first compound 0.01 µM
[27] = second compound 0.1 µM, first compound 0.00316 µM
[28] = second compound 0.1 µM, first compound 0.01 µM
[29] = second compound 0.316 µM, first compound 0.00316 µM
[30] = second compound 0.316 µM, first compound 0.01 µM
[31] = second compound 1 µM, first compound 0.00316 µM
[32] = second compound 1 µM, first compound 0.01 µM
[33] = second compound 3.16 µM, first compound 0.00316 µM
[34] = second compound 3.16 µM, first compound 0.01 µM
[35] = second compound 10 µM, first compound 0.00316 µM
[36] = second compound 10 µM, first compound 0.01 µM
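Note: spheroids exposed to compounds for 7 days before readout.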
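Throughout, for viability, T/C: 100% = DMSO vehicle control viability.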

With `CCCS(=O)(=O)Nc1ccc(F)c(C(=O)c2c[nH]c3ncc(-c4ccc(Cl)cc4)cc23)c1F` + COC1C(OC(N)=O)C(O)C(Oc2ccc3c(O)c(NC(=O)c4ccc(O)c(CC=C(C)C)c4)c(=O)oc3c2C)OC1(C)C the IC50 (second compound 0.0316 µM) was greater than 10000 nM, the IC50 (second compound 0.1 µM) was greater than 10000 nM and the IC50 (second compound 0.316 µM) was greater than 10000 nM. For the same compound, the IC50 (second compound 1 µM) was greater than 10000 nM, the IC50 (second compound 3.16 µM) was greater than 10000 nM and the IC50 (second compound 10 µM) was greater than 10000 nM. The viability, T/C [1] was 110%, the viability, T/C [2] was 98.7% and the viability, T/C [3] was 106%. For the same compound, the viability, T/C [4] was 105%, the viability, T/C (second compound 0.0316 µM, first compound 3.16 µM) was 102% and the viability, T/C (second compound 0.0316 µM, first compound 10 µM) was 104%. The viability, T/C [5] was 82%, the viability, T/C [6] was 109% and the viability, T/C [7] was 97.5%. The viability, T/C [8] was 85.5%, the viability, T/C (second compound 0.1 µM, first compound 3.16 µM) was 129% and the viability, T/C (second compound 0.1 µM, first compound 10 µM) was 109%. For the same compound, the viability, T/C [9] was 96.9%, the viability, T/C [10] was 94.9% and the viability, T/C [11] was 121%. The viability, T/C [12] was 130%, the viability, T/C (second compound 0.316 µM, first compound 3.16 µM) was 97.9% and the viability, T/C (second compound 0.316 µM, first compound 10 µM) was 108%. The viability, T/C [13] was 105%, the viability, T/C [14] was 103% and the viability, T/C [15] was 121%. For the same compound, the viability, T/C [16] was 95.9%, the viability, T/C (second compound 1 µM, first compound 3.16 µM) was 105% and the viability, T/C (second compound 1 µM, first compound 10 µM) was 84.8%. For the same compound, the viability, T/C [17] was 102%, the viability, T/C [18] was 124% and the viability, T/C [19] was 99.7%. It also gave a viability, T/C [20] of 105%, a viability, T/C (second compound 3.16 µM, first compound 3.16 µM) of 89.9% and a viability, T/C (second compound 3.16 µM, first compound 10 µM) of 97.6%. For the same compound, the viability, T/C [21] was 94.2%, the viability, T/C [22] was 118% and the viability, T/C [23] was 95.2%. For the same compound, the viability, T/C [24] was 111%, the viability, T/C (second compound 10 µM, first compound 3.16 µM) was 113% and the viability, T/C (second compound 10 µM, first compound 10 µM) was 110%.

With `COc1cccc(OCCCN)c1-c1cc(Nc2cnc(C#N)cn2)n[nH]1` + COC1C(OC(N)=O)C(O)C(Oc2ccc3c(O)c(NC(=O)c4ccc(O)c(CC=C(C)C)c4)c(=O)oc3c2C)OC1(C)C the IC50 (second compound 0.0316 µM) was 276 nM, the IC50 (second compound 0.1 µM) was 421 nM and the IC50 (second compound 0.316 µM) was 338 nM. For the same compound, the IC50 (second compound 1 µM) was 459 nM, the IC50 (second compound 3.16 µM) was 491 nM and the IC50 (second compound 10 µM) was 513 nM. For the same compound, the viability, T/C [25] was 111%, the viability, T/C [26] was 109% and the viability, T/C [1] was 84.4%. The viability, T/C [2] was 63.6%, the viability, T/C [3] was 52.1% and the viability, T/C [4] was 35.6%. The viability, T/C [27] was 97.3%, the viability, T/C [28] was 89.4% and the viability, T/C [5] was 92.9%. For the same compound, the viability, T/C [6] was 69.2%, the viability, T/C [7] was 59.6% and the viability, T/C [8] was 28.7%. For the same compound, the viability, T/C [29] was 99.3%, the viability, T/C [30] was 104% and the viability, T/C [9] was 102%. For the same compound, the viability, T/C [10] was 77.8%, the viability, T/C [11] was 53.2% and the viability, T/C [12] was 29.6%. For the same compound, the viability, T/C [31] was 111%, the viability, T/C [32] was 80% and the viability, T/C [13] was 80.6%. The viability, T/C [14] was 75.8%, the viability, T/C [15] was 61.4% and the viability, T/C [16] was 33.7%. The viability, T/C [33] was 109%, the viability, T/C [34] was 74.2% and the viability, T/C [17] was 91.9%. For the same compound, the viability, T/C [18] was 87.5%, the viability, T/C [19] was 59.3% and the viability, T/C [20] was 34.8%. For the same compound, the viability, T/C [35] was 75.8%, the viability, T/C [36] was 95.2% and the viability, T/C [21] was 90%. The viability, T/C [22] was 76.9%, the viability, T/C [23] was 59.3% and the viability, T/C [24] was 37.9%.

Compound `COc1cccc(OCCCN)c1-c1cc(Nc2cnc(C#N)cn2)n[nH]1` + Nc1ccc(C#CCN(C(=O)Cc2ncc(C(F)(F)F)cc2C(F)(F)F)c2ccc(F)cc2)nn1 has an IC50 (second compound 0.0316 µM) of 718 nM, an IC50 (second compound 0.1 µM) of 587 nM and an IC50 (second compound 0.316 µM) of 666 nM. The IC50 (second compound 1 µM) was 728 nM, the IC50 (second compound 3.16 µM) was 425 nM and the IC50 (second compound 10 µM) was 87.4 nM. It also gave a viability, T/C [25] of 114%, a viability, T/C [26] of 89.4% and a viability, T/C [1] of 105%. It also gave a viability, T/C [2] of 83.4%, a viability, T/C [3] of 55.9% and a viability, T/C [4] of 47.5%. For the same compound, the viability, T/C [27] was 104%, the viability, T/C [28] was 105% and the viability, T/C [5] was 100%. For the same compound, the viability, T/C [6] was 82.8%, the viability, T/C [7] was 57.8% and the viability, T/C [8] was 43.5%. For the same compound, the viability, T/C [29] was 102%, the viability, T/C [30] was 106% and the viability, T/C [9] was 103%. It also gave a viability, T/C [10] of 85.1%, a viability, T/C [11] of 67.9% and a viability, T/C [12] of 40.7%. For the same compound, the viability, T/C [31] was 106%, the viability, T/C [32] was 95.2% and the viability, T/C [13] was 89.4%. It also gave a viability, T/C [14] of 80.9%, a viability, T/C [15] of 70.5% and a viability, T/C [16] of 42%. It also gave a viability, T/C [33] of 102%, a viability, T/C [34] of 93.2% and a viability, T/C [17] of 83.4%. For the same compound, the viability, T/C [18] was 70.4%, the viability, T/C [19] was 51.5% and the viability, T/C [20] was 41.4%. It also gave a viability, T/C [35] of 93.3%, a viability, T/C [36] of 96.5% and a viability, T/C [21] of 73%. It also gave a viability, T/C [22] of 46.8%, a viability, T/C [23] of 49.9% and a viability, T/C [24] of 44.2%.
